Common to all, as to type: in vivo, rat
Test [1] concerns rats (NAcShell injection). The test can be described thus: locomotor activity in a photocell cage after drug injection in the NAcShell. The following applies: 10 min following injection in NAcShell; arecoline 40 μg, pirenzepine 35 μg, scopolamine 1 μg, gallamine 0.88 μg. As for the experimental part:
FIG. 4 is a graph illustrating the effects of cholinergic drugs on locomotor activity in a photocell cage. Activity in the 10 min following drug injection in the NAcShell (black bars) is expressed as a percentage of control injections normalized to 100% (white bars).
FIG. 4 illustrates the effects of cholinergic drugs on locomotor activity in a photocell cage. Activity in the 10 min following drug injection in the NAc (black bars) is expressed as a percentage of control injections normalized to 100% (white bars).

For test [2], the system named is NAcShell of rats (ICSS reward threshold). The test can be described thus: discrete trial current-threshold intracranial self-stimulation (ICSS), drugs infused into NAcShell. The following applies: for ICSS threshold change: vs baseline, N=2; for ICSS threshold, effect in words: infused into the NAcShell during the ICSS procedure. From the text:
FIG. 2 is a graph illustrating the effect of antagonism of M1 mAChR and agonism of mAChR in the nucleus accumbens shell (NAcShell). The discrete trial current-threshold intracranial self-stimulation paradigm was used to assess the effect of cholinergic drugs infused directly into the NAcShell on reward, independent of performance. See below and Markou and Koob (Neuropsychopharmacology. 1991 January; 4(1):17-26) for detailed description of the paradigm. Thresholds measured in a rat vary little in the 4 pre-drug days (<7% of the mean or baseline). The non-selective mAChR agonist arecoline dose-dependently elevates threshold (0.01 M, +11%; 1.0 M, +57.5%, N=2). Pirenzepine dihydrochloride (Sigma-Aldrich, Saint Louis, Mo.), a selective M1 mAChR antagonist, dose-dependently lowers threshold (0.1 mM, −7%; 100 mM, […], N=2). The drugs were infused into the NAcShell at a steady rate by reversed microdialysis over the hour required to complete threshold testing.
Anhedonia may be assessed by applying the intracranial self-stimulation (ICSS) paradigm. The ICSS may be used to assess anhedonia, reward, hedonic capacity, and motivation in animals. In this paradigm, a rat performs an operant task (e.g. pressing a bar) to receive rewarding electrical stimulation through electrodes implanted into specific areas of the brain, including the lateral hypothalamus (LH), medial forebrain bundle (MFB), ventral tegmental area containing dopamine neurons (VTA), the nucleus accumbens shell or nucleus accumbens medial core, ventral pallidum, orbitofronal cortex (OPFC), medial frontal cortex (MPFC), cingulate cortex, lateral bed nucleus of the stria terminalis of the amygdala (BNST), mediodorsal thalamus (mdTham), lateral septum, the dorsal raphe containing serotonin neurons, the locus coeruleus containing norepinephrine neurons (see FIG. 1). As noted above, these regions supporting ICSS form an interconnected network commonly referred to as the “brain reward circuitry.”
A skilled artisan would recognize that variations of the ICSS paradigm may be used. For example, one of the most commonly used ICSS procedures, which has been experimentally validated and has shown to be reward-selective, is the discrete-trial current-intensity threshold procedure. This procedure directly and reliably assesses an animal's sensitivity to rewards, hedonic capacity, and motivation, independent of performance, i.e., ability to move (for detailed procedures see Markou and Koob, Neuropsychopharmacology. 1991 January; 4(1):17-26). The discrete trial current-intensity threshold ICSS procedure provides unique ways to investigate the anatomical and neurochemical basis of reward and motivation and is an important tool for assessing of the reward-facilitating or anhedonic effects of various drugs or medications.
Lowering of ICSS thresholds indicates facilitation of brain stimulation reward, whereas elevation in ICSS threshold indicates diminished reward value of the stimulation and thus an anhedonic state. Acute administration of most drugs of abuse, including cocaine, amphetamine, nicotine, morphine, and heroin, lower ICSS thresholds in experimental animals, logically because of their rewarding values. By contrast, withdrawal from chronic administration of these drugs elevates ICSS thresholds, indicating an anhedonic state that resembles the negative affective and motivational state of the drug withdrawal syndrome experienced by humans. Elevated ICSS threshold also occurs in animal models of depression. Such elevation in ICSS threshold reflects decreased sensitivity to rewarding stimuli, decreased hedonic capacity or motivation, and/or an aversive and dysphoric affective state of the animal model of depression. Importantly, administration of antidepressants normalizes or lowers ICSS threshold in such animals, indicating a reversal of reward and motivational deficits.
FIG. 2 is a graph illustrating the effect of antagonism of M1 mAChR and agonism of mAChR in the NAcShell. […]

For test [3], the system named is rats (NAcShell injection). The test can be described thus: Porsolt swim test after injection of mAChR agonists and antagonists in the NAcShell. To be noted: for Drug (sec), mean swimming time / Percent change of swimming time vs Ringer / Time diff (sec), drug vs Ringer: 600 sec swim test. As for the experimental part:
FIG. 3 is a graph illustrating swimming time following injections of cholinergic drugs in NAc (black bars), compared to Ringer (white bars). (A) Local injection of arecoline, a muscarinic agonist, decreased swim time; the animals quickly gave up (40 μg, −41%, n=8, t=3.53, p<0.01; and 80 μg, −66%, n=6, t=4.12, p<0.01). (B) Pirenzepine, an M1 antagonist, increased swimming escape attempts in the manner of an antidepressant, but note this is a local injection (17.5 μg, n=8, +39%, t=3.63, p<0.01; 35 μg, +40%, n=9, t=7.15, p<0.001). […] (D) Local gallamine, an M2 antagonist, decreased swim time (0.13 μg/side, −21%, n=7, t=3.72, p<0.01; 0.44 μg/side, −37%, n=8, t=2.95, p<0.05; 0.88 μg/side, −36%, n=7, t=4.64, p<0.01). Swimming time following Ringer is normalized to 100%, with each bar representing the mean of the normalized responses across subjects. Swimming time following a drug injection is expressed as a percentage of the swimming time following vehicle injection on a different day. Significant changes in the within-subject response to drug injections are indicated with asterisks (* p<0.05, ** p<0.01, *** p<0.001).
The Porsolt swim test is an animal model of depression widely used as a screen for drugs with potential antidepressant effects in humans and for elucidating the pharmacological mechanisms of action of antidepressant medications. For example, the following procedure may be used:
On the first day of this test (day 1), a rodent (typically a rat) is placed in a cylindrical water tank for 15 min. Then after 24 hours (day 2) and 48 hours (day 3), drug and Ringer are administered to the animal in counterbalanced order. Immediately following each injection, the animal is placed in the swim test for 10 min. The length of time it swims during the swim tests is recorded. “Swimming” is defined by escape behaviors (i.e. diving, rigorous paddling with all four legs, circling the tank, and clambering at the tank walls). ‘Immobility’ was scored as floating and treading water just enough to keep the nose above water. Typically, after the first swimming session, animals become behaviorally depressed as shown by swimming less on later test days (day 2 or 3). […] Antidepressants increase swimming without affecting locomotor activity, whereas non-antidepressant drugs such as certain psychostimulants may also decrease immobility, but also increase locomotor activity in the open field test. Therefore, to screen a potential antidepressant, the swim test is typically followed by test for hyperactivity in the open field.
Rats were placed in the 600 sec (10 min) swim test following injections of drugs in the NAcShell. When not swimming, rats floated or made minimal forepaw movements to keep their noses above water. Each rat received one drug counterbalanced with Ringer on a separate day. The shorter control swim times for the gallamine group, relative to groups that received other drugs, may have been due to a seasonal difference. Control injections, shown in the last line, were made 2 mm dorsal to the accumbens (Pirenzepine Ctrl). Asterisks indicate significant difference between drug and Ringer (* p<0.05; ** p<0.01; *** p<0.001).

The test system of test [4] is extracellular ACh in NAcShell. The experiment in a line: ACh efflux in NAcShell, infusion by reverse dialysis in freely moving rats. To be noted: for extracellular ACh: 20 min infusion in NAcShell by reverse dialysis, oxotremorine 4 mM (hour following infusion), gallamine 1 mM, scopolamine 10 mM probe concentration. As for the experimental part: To determine if the M2 drugs act presynaptically on autoreceptors controlling ACh release, freely moving rats received infusions of an M2 agonist or antagonist in the NAcShell for 20 min by reverse dialysis while extracellular ACh was measured.
To determine if the M2 drugs act presynaptically on autoreceptors controlling ACh release, freely moving rats received infusions of an M2 agonist or antagonist in the NAc for 20 min by reverse dialysis while extracellular ACh was measured.

Setting [5] is: 17.5 μg/side, control injections 2 mm dorsal to the accumbens.

The record followed here is patent US20130289019A1, “METHODS OF TREATING BEHAVIORIAL AND/OR MENTAL DISORDERS” (AMAZING GRACE, INC., priority 2012, published 2013).

“Also recorded” adds a separate entry of the source. Marks after values point to notes of the source that are not given here.

As to `COC(=O)C1=CCCN(C)C1` [Arecholine], in test [1], the “locomotor activity vs Ringer, in words” value was “significantly decreased”. Moreover, the ICSS threshold change entry is reported as “+11%” in test [2] (arecoline 0.01 M infused into NAcShell by reversed microdialysis over 1 h) and “+57.5%” in test [2] (arecoline 1.0 M infused into NAcShell by reversed microdialysis over 1 h). Further, the “ICSS threshold, effect in words” value in test [2] is “dose-dependently increases ICSS threshold”. Further, the figures for the “Drug (sec), mean swimming time” value in test [3] (40.0 μg/side in NAcShell) and in test [3] (80.0 μg/side in NAcShell) were 235 ± 17** sec and 109 ± 34** sec, respectively. The “Percent change of swimming time vs Ringer” value (“Percent change” below) is recorded as −41% in test [3] (40.0 μg/side in NAcShell); −41% in test [3] (40.0 μg/side in NAcShell, listed as arecoline); −66% in test [3] (80.0 μg/side in NAcShell); −66% in test [3] (80.0 μg/side in NAcShell, listed as arecoline). Besides, the entries for the “Time diff (sec), drug vs Ringer” value in test [3] (40.0 μg/side in NAcShell) and in test [3] (80.0 μg/side in NAcShell) were -162 s and -209 s, respectively.

Consider `CC[N+](CC)(CC)CCOc1cccc(OCC[N+](CC)(CC)CC)c1OCC[N+](CC)(CC)CC` [Gallamine], for which the “locomotor activity vs Ringer, in words” value in test [1] is “not significantly different from Ringer”. Moreover, the “extracellular ACh” value in test [4] is given as 437 % of baseline. For the same compound, in test [4] (gallamine 1 mM: time following the infusion, scopolamine 10 mM), the “duration of the ACh increase (until return to baseline)” value is 20 min. For the same compound, the “Drug (sec), mean swimming time” value is on record as 155 ± 26** sec in test [3] (0.13 μg/side in NAcShell) and 148 ± 24* sec in test [3] (0.44 μg/side in NAcShell). The “Percent change” value in test [3] (0.13 μg/side in NAcShell) is −21%; in test [3] (0.13 μg/side in NAcShell, listed as gallamine) it was −21%; in test [3] (0.44 μg/side in NAcShell), −37%; in test [3] (0.44 μg/side in NAcShell, listed as gallamine), −37%. The “Time diff (sec), drug vs Ringer” value was -41 s in test [3] (0.13 μg/side in NAcShell) and -88 s in test [3] (0.44 μg/side in NAcShell).

On to `CN1CCN(CC(=O)N2c3ccccc3C(=O)Nc3cccnc32)CC1` [Pirenzepine], for which, in test [1], the “locomotor activity vs Ringer, in words” value was “not significantly different from Ringer; also recorded: without altering activity in the open field”. The “ICSS threshold, effect in words” value in test [2] was “dose-dependently lowers ICSS threshold”. In addition, the ICSS threshold change in test [2] (pirenzepine 0.1 mM infused into NAcShell by reversed microdialysis over 1 h) is −7%; in test [2] (pirenzepine 100 mM infused into NAcShell by reversed microdialysis over 1 h) it was 14%. Besides, the “Drug (sec), mean swimming time” value in test [3] (17.5 μg/side in NAcShell) is 480 ± 38** sec; in test [3] (setting [5]), 301 ± 34 s; in test [3] (35.0 μg/side in NAcShell), 412 ± 26*** sec. Further, the “Time diff (sec), drug vs Ringer” value in test [3] (17.5 μg/side in NAcShell) is “+134 sec”; in test [3] (setting [5]) it was -36 s; in test [3] (35.0 μg/side in NAcShell), “+117 sec”. Also, the “Percent change” value in test [3] (setting [5]) was −10%. The “immobility in the swim test, effect in words” value in test [3] (infusion into the NAcShell) is recorded as “decreases immobility”.

For the compound `O=C1CCCN1CC#CCN1CCCC1` [oxotremorine], the “extracellular ACh” value in test [4] is 55 % of baseline. In addition, the “ACh level in the NAc, effect in words” value in test [4] (inventor's data (Chau et al. 2001)) is “decreasing ACh”.
